Test results taken from ChEMBL document CHEMBL4354801, “Design, Synthesis, and Structure-Activity Relationships of 1,2,3-Triazole Benzenesulfonamides as New Selective Leucine-Zipper and Sterile-α Motif Kinase (ZAK) Inhibitors” (J Med Chem, 2020).
Blank lines part the entries; values can stand above or below the molecule they belong to.

What was measured:
[1] = biological target: Serine/threonine-protein kinase B-raf (Homo sapiens, UniProt P15056, V600E); experiment: Inhibition of recombinant human B-RAF V600E mutant using Ser/Thr3 as substrate after 1 hr by FRET-based Z'-Lyte assay
[2] = biological target: T1, Mitogen-activated protein kinase kinase kinase 20 (Homo sapiens, UniProt Q9NYL2); experiment: Inhibition of N-terminal GST-tagged recombinant human full-length ZAK expressed in baculovirus infected Sf9 insect cells using MBP as substrate after 30 mins by ADP-Glo assay
[3] = biological target: T1, Mitogen-activated protein kinase kinase kinase 20; experiment: Binding affinity to human ZAK
[4] = biological target: Receptor-type tyrosine-protein kinase FLT3 (Homo sapiens, UniProt P36888, F691L); experiment: Binding affinity to human FLT3 F691L mutant
[5] = Effect on ZAKalpha protein expression in rat H9C2 cells by Western blot analysis
Rattus norvegicus [6] = experiment: Anti-hypertrophic cardiomyopathy activity in SHR rat assessed as whole heart weight level elevation at 2.5 mg/kg, po once daily for 8 weeks (reference value: 1.23 +/- 0.006 g); format: functional
[7] = biological target: T2, Tyrosine-protein kinase ABL1 (Homo sapiens, UniProt P00519); experiment: Inhibition of human ABL1
[8] = AUC (0 to t) in Sprague-Dawley rat at 2.5 mg/kg, iv by HPLC/MS analysis; format: ADME, organism-based; conditions: in vivo
[9] = biological target: Tyrosine-protein kinase Lck (Homo sapiens, UniProt P06239); experiment: Binding affinity to human LCK
[10] = biological target: T2, Tyrosine-protein kinase ABL1; experiment: Binding affinity to human ABL1
[11] = Cmax in Sprague-Dawley rat at 10 mg/kg, po by HPLC/MS analysis; format: ADME, organism-based; parameters: dose 10 mg/kg, route oral; conditions: in vivo
[12] = Half life in Sprague-Dawley rat at 2.5 mg/kg, iv by HPLC/MS analysis; format: ADME, organism-based; conditions: in vivo
[13] = AUC (0 to infinity) in Sprague-Dawley rat at 10 mg/kg, po by HPLC/MS analysis; format: ADME, organism-based; parameters: dose 10 mg/kg, route oral, time infinity; conditions: in vivo
[14] = Clearance in Sprague-Dawley rat at 2.5 mg/kg, iv by HPLC/MS analysis; format: ADME, organism-based; conditions: in vivo
[15] = AUC (0 to infinity) in Sprague-Dawley rat at 2.5 mg/kg, iv by HPLC/MS analysis; format: ADME, organism-based; parameters: dose 2.5 mg/kg, route intravenous, time infinity; conditions: in vivo
[16] = Oral bioavailability in Sprague-Dawley rat at 10 mg/kg by HPLC/MS analysis; format: ADME, organism-based; conditions: in vivo
Rattus norvegicus [17] = experiment: Anti-hypertrophic cardiomyopathy activity in SHR rat assessed as whole heart weight level elevation at 10 mg/kg, po once daily for 8 weeks (reference value: 1.23 +/- 0.006 g); format: functional
Rattus norvegicus [18] = experiment: Anti-hypertrophic cardiomyopathy activity in SHR rat assessed as left ventricular weight level elevation at 10 mg/kg, po once daily for 8 weeks (reference value: 0.89 +/- 0.005 g); format: functional
[19] = Cmax in Sprague-Dawley rat at 2.5 mg/kg, iv by HPLC/MS analysis; format: ADME, organism-based; parameters: dose 2.5 mg/kg, route intravenous; conditions: in vivo
[20] = Half life in Sprague-Dawley rat at 10 mg/kg, po by HPLC/MS analysis; format: ADME, organism-based; conditions: in vivo
[21] = biological target: Tyrosine-protein kinase Blk (Homo sapiens, UniProt P51451); experiment: Binding affinity to human BLK
[22] = biological target: T1, Mitogen-activated protein kinase kinase kinase 20; experiment: Binding affinity to ATP-binding site of human ZAK expressed in Escherichia coli by active site-dependent competition binding assay
LIM domain kinase 2 = LIM domain kinase 2 (Homo sapiens, UniProt P53671); experiment: Binding affinity to human LIMK2
LIM domain kinase 1 = LIM domain kinase 1 (Homo sapiens, UniProt P53667); experiment: Binding affinity to human LIMK1
[23] = AUC (0 to t) in Sprague-Dawley rat at 10 mg/kg, po by HPLC/MS analysis; format: ADME, organism-based; conditions: in vivo
[24] = biological target: Receptor-interacting serine/threonine-protein kinase 2 (Homo sapiens, UniProt O43353); experiment: Binding affinity to human RIPK2
Rattus norvegicus [25] = experiment: Anti-hypertrophic cardiomyopathy activity in SHR rat assessed as left ventricular weight level elevation at 2.5 mg/kg, po once daily for 8 weeks (reference value: 0.89 +/- 0.005 g); format: functional

Chain of Serine/threonine-protein kinase B-raf (P15056 2-766 V600E limits assumed): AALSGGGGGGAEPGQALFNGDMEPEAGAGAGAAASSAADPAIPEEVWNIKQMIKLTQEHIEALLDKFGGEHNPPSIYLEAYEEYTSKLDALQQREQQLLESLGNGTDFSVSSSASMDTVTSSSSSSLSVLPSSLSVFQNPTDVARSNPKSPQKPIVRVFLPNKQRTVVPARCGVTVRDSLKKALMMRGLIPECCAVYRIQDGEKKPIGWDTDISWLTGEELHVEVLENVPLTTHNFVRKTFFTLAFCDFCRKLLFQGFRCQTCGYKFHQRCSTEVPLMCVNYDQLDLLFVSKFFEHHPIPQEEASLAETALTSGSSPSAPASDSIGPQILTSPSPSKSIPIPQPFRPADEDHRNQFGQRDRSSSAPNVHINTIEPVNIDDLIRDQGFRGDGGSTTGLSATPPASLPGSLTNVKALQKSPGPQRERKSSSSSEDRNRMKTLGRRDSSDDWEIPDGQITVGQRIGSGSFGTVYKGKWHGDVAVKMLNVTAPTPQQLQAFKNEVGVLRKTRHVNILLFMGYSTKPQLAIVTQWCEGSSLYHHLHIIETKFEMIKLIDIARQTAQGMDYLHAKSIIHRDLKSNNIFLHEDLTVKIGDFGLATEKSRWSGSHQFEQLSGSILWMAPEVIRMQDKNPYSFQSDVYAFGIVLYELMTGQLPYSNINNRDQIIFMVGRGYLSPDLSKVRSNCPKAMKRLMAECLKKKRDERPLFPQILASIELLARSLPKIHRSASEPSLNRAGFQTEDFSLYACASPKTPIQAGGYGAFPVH
T1 sequence (Q9NYL2 whole entry): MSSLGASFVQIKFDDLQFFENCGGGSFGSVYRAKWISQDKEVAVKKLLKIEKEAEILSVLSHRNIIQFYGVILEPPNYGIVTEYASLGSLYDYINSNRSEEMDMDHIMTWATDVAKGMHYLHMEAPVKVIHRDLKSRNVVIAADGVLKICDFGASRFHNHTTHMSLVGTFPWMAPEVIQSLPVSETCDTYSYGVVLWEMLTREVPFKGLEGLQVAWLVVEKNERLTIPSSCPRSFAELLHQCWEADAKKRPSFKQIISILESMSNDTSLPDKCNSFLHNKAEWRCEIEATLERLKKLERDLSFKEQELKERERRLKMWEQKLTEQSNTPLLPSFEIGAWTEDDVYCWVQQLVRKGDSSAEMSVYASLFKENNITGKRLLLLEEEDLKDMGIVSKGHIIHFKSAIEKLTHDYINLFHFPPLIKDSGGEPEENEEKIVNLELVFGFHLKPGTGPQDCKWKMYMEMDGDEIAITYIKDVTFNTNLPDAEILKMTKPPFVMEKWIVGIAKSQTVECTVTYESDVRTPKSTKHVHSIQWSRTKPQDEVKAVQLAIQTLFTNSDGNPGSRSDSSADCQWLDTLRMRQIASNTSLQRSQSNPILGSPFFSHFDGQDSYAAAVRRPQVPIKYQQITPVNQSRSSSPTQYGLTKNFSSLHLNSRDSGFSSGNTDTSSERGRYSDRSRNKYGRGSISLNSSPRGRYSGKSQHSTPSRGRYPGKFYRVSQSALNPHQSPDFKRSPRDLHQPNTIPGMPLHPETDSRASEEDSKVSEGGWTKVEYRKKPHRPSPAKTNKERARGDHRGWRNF
T2 sequence (P00519 whole entry): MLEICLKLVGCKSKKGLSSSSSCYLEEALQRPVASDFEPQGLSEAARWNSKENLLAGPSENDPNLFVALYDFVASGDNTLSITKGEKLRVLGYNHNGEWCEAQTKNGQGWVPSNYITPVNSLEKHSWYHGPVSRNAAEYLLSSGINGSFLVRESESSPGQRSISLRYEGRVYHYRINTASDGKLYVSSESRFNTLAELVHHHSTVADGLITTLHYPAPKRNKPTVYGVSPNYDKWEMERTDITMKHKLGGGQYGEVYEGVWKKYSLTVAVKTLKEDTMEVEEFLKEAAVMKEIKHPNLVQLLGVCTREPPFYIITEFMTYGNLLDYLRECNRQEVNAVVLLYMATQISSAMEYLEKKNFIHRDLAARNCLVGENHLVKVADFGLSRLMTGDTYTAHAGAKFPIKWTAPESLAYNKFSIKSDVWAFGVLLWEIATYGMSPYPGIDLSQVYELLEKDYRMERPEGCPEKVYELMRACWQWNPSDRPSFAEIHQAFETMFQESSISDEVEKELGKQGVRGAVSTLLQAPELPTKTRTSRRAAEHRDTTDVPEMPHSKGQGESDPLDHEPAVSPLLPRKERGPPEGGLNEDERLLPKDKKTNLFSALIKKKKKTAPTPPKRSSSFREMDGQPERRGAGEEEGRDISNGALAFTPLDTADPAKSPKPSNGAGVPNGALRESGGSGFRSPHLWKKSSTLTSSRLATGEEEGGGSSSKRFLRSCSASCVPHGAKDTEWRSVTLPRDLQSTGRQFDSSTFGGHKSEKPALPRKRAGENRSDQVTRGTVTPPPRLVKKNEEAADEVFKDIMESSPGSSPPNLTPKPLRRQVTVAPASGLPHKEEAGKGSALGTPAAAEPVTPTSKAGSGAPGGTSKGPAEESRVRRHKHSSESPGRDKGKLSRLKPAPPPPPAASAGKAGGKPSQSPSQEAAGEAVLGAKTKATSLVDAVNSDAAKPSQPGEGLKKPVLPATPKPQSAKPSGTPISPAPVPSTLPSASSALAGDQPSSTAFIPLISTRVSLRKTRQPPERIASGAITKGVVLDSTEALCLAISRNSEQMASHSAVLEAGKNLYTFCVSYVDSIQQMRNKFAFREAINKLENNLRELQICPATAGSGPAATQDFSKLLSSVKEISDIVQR
Chain of LIM domain kinase 2 (P53671 whole entry, the tested form may be a part): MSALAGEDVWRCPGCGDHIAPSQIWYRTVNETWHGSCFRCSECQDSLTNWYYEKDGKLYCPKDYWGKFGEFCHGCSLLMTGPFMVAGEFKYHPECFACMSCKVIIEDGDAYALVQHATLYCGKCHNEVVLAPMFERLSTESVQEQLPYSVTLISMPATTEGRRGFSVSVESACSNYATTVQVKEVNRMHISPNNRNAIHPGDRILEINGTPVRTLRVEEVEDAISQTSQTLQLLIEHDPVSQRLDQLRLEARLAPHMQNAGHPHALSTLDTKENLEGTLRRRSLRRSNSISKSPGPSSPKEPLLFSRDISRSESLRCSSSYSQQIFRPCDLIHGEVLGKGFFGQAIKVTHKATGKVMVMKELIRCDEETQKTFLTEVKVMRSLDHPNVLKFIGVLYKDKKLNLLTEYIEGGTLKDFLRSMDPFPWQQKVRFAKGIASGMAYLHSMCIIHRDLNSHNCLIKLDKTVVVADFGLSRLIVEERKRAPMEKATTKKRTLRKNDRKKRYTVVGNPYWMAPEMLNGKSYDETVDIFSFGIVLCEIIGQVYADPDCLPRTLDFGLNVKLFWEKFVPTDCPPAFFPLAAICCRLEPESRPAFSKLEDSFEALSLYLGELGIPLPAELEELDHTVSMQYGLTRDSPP
Chain of Tyrosine-protein kinase Lck (P06239 whole entry): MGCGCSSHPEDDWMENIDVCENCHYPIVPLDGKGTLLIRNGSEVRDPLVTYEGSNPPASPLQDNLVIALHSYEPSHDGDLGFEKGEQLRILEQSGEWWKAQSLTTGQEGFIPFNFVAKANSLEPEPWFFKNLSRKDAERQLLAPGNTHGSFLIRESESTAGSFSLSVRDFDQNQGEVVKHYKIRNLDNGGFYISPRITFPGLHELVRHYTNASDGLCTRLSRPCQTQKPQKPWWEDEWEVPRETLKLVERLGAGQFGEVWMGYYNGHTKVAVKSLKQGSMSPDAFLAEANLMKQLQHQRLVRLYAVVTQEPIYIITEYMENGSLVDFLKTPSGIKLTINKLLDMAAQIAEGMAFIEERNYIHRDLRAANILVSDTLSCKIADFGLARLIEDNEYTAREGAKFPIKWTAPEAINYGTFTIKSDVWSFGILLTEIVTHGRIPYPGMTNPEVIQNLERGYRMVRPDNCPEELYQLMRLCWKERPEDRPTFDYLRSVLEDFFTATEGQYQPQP
Chain of Tyrosine-protein kinase Blk (P51451 whole entry): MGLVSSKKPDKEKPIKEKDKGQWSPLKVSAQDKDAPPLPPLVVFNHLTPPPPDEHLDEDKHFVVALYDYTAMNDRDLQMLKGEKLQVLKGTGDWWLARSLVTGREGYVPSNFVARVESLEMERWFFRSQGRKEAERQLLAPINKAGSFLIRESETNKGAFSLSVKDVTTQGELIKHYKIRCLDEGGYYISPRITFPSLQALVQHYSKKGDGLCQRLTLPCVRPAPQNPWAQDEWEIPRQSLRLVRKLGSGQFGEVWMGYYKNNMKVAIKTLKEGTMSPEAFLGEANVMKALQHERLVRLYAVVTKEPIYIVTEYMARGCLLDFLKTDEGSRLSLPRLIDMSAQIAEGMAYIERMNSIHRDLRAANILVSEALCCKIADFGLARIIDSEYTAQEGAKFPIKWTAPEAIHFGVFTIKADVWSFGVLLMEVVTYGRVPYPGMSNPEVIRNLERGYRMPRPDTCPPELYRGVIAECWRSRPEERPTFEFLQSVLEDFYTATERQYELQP
Chain of LIM domain kinase 1 (P53667 whole entry, the tested form may be a part): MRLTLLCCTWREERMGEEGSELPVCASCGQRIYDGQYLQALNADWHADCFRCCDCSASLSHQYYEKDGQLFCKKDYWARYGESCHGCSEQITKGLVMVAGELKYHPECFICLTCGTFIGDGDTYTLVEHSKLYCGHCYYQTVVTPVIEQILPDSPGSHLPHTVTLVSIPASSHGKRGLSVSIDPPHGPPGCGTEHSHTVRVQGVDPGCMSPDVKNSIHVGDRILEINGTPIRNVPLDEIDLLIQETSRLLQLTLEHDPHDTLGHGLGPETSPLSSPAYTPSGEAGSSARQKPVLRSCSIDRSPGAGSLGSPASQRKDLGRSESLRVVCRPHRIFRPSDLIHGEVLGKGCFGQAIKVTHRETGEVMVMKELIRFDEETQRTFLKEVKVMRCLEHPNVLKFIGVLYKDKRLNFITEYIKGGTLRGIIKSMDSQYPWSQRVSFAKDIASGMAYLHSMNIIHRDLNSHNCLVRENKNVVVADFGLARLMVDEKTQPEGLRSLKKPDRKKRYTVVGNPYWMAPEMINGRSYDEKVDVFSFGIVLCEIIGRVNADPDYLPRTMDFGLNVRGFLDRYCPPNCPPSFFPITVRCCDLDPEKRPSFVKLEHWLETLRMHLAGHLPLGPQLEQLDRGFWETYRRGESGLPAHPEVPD

Structure (SMILES): COc1n[nH]c2ncc(C#Cc3c(F)ccc(NS(=O)(=O)c4cccc(Cl)c4)c3F)cc12
- IC50 [1]: > 1000 nM
- IC50 [2]: 14.7 nM

Structure (SMILES): COc1n[nH]c2ncc(-c3cn(-c4c(F)ccc(NC(=O)Cc5cccc(Cl)c5)c4F)nn3)cc12
- IC50 [1]: 83.1 nM
- IC50 [2]: 85.7 nM

Structure (SMILES): COc1n[nH]c2ncc(-c3cn(-c4c(F)ccc(NS(=O)(=O)c5ccc6ccccc6c5)c4F)nn3)cc12
- IC50 [1]: 856 nM
- IC50 [2]: 4.5 nM

Structure (SMILES): COc1n[nH]c2ncc(-c3cn(-c4c(F)ccc(NS(=O)(=O)c5cccc(C(C)C)c5)c4F)nn3)cc12
- IC50 [1]: 190 nM
- IC50 [2]: 6.9 nM

Structure (SMILES): COc1n[nH]c2ncc(-c3cn(-c4c(F)ccc(NS(=O)(=O)c5cccc(-c6ccccc6)c5)c4F)nn3)cc12
- Kd [3]: 8 nM
- Kd [4]: 530 nM
- Activity [5]: Non-Toxic
- Activity (Rattus norvegicus [6]): 1.18 g
- IC50 [7]: 156 nM
- AUC(0-t) [8]: 27400 ng·h/mL
- Kd [9]: 160 nM
- Kd [10]: 15 nM
- Cmax [11]: 16400 ng/mL
- half-life [12]: 1.6 h
- AUC(0-inf) [13]: 71800 ng·h/mL
- clearance [14]: 1.53 mL/min/kg
- AUC(0-inf) [15]: 27900 ng·h/mL
- bioavailability [16]: 65.3%
- Activity (Rattus norvegicus [17]): 1.13 g
- Activity (Rattus norvegicus [18]): 0.78 g
- IC50 [1]: > 1000 nM
- Cmax [19]: 34200 ng/mL
- IC50 [2]: 4 nM
- half-life [20]: 1.7 h
- Kd [21]: 190 nM
- Kd [22]: 8 nM
- Kd (LIM domain kinase 2): 63 nM
- Kd (LIM domain kinase 1): 23 nM
- AUC(0-t) [23]: 71600 ng·h/mL
- Kd [24]: 57 nM
- Activity (Rattus norvegicus [25]): 0.82 g

Structure (SMILES): COc1n[nH]c2ncc(-c3nnc(-c4c(F)ccc(NS(=O)(=O)c5cccc(Cl)c5)c4F)o3)cc12
- IC50 [1]: > 1000 nM
- IC50 [2]: 63.3 nM

Structure (SMILES): Nc1ccc(-c2cn(-c3c(F)ccc(NS(=O)(=O)c4cccc(Cl)c4)c3F)nn2)cn1
- IC50 [1]: > 1000 nM
- IC50 [2]: 46.2 nM

Structure (SMILES): COc1n[nH]c2ncc(-c3ncc(-c4c(F)ccc(NS(=O)(=O)c5cccc(Cl)c5)c4F)[nH]3)cc12
- IC50 [1]: > 1000 nM
- IC50 [2]: 983 nM

Structure (SMILES): COc1n[nH]c2ncc(-c3cn(-c4c(F)ccc(NS(=O)(=O)c5cccc6ccccc56)c4F)nn3)cc12
- IC50 [1]: 126 nM
- IC50 [2]: 4.2 nM

Structure (SMILES): COc1n[nH]c2ncc(-c3nc(-c4c(F)ccc(NS(=O)(=O)c5cccc(Cl)c5)c4F)no3)cc12
- IC50 [1]: > 1000 nM
- IC50 [2]: 29 nM

Structure (SMILES): COc1n[nH]c2ncc(-c3cn(-c4c(F)ccc(NC(=O)c5cccc(Cl)c5)c4F)nn3)cc12
- IC50 [1]: 11.4 nM
- IC50 [2]: 54.3 nM

Structure (SMILES): COc1cccc(S(=O)(=O)Nc2ccc(F)c(-n3cc(-c4cnc5[nH]nc(OC)c5c4)nn3)c2F)c1
- IC50 [1]: 272 nM
- IC50 [2]: 2.3 nM

Structure (SMILES): COc1n[nH]c2ncc(-c3cn(-c4c(F)ccc(NC(=O)Nc5cccc(Cl)c5)c4F)nn3)cc12
- IC50 [1]: 51.6 nM
- IC50 [2]: 53 nM

Structure (SMILES): Nc1ncc(-c2cn(-c3c(F)ccc(NS(=O)(=O)c4cccc(Cl)c4)c3F)nn2)cn1
- IC50 [1]: > 1000 nM
- IC50 [2]: 8.9 nM

Structure (SMILES): COc1n[nH]c2ncc(-c3cn(-c4c(F)ccc(NS(=O)(=O)c5cccc(C#N)c5)c4F)nn3)cc12
- IC50 [1]: 470 nM
- IC50 [2]: 3.3 nM

Other lines, results leading:

- IC50 [1]: 39 nM
- IC50 [2]: 3.8 nM
Structure (SMILES): COc1n[nH]c2ncc(-c3cn(-c4c(F)ccc(NS(=O)(=O)c5ccccc5)c4F)nn3)cc12

- IC50 [1]: 453 nM
- IC50 [2]: 4.4 nM
Structure (SMILES): COc1n[nH]c2ncc(-c3cn(-c4c(F)ccc(NS(=O)(=O)c5cccc(C)c5)c4F)nn3)cc12

- IC50 [1]: 334 nM
- IC50 [2]: 5.7 nM
Structure (SMILES): COc1n[nH]c2ncc(-c3cn(-c4cc(NS(=O)(=O)c5cccc(Cl)c5)ccc4F)nn3)cc12

- IC50 [1]: > 1000 nM
- IC50 [2]: 24.7 nM
Structure (SMILES): COc1n[nH]c2ncc(-c3cn(-c4cccc(NS(=O)(=O)c5cccc(Cl)c5)c4)nn3)cc12

- IC50 [1]: 198 nM
- IC50 [2]: 1.9 nM
Structure (SMILES): COc1n[nH]c2ncc(-c3cn(-c4c(F)ccc(NS(=O)(=O)c5cccc(Cl)c5)c4F)nn3)cc12

- IC50 [1]: 272 nM
- IC50 [2]: 2.1 nM
Structure (SMILES): COc1n[nH]c2ncc(-c3cn(-c4c(F)ccc(NS(=O)(=O)c5cccc(Br)c5)c4F)nn3)cc12

- IC50 [1]: 795 nM
- IC50 [2]: 3 nM
Structure (SMILES): COc1n[nH]c2ncc(-c3cn(-c4cccc(NS(=O)(=O)c5cccc(Cl)c5)c4F)nn3)cc12

- IC50 [1]: 436 nM
- IC50 [2]: 413 nM
Structure (SMILES): COc1n[nH]c2ncc(-c3cn(-c4c(Cl)ccc(NS(=O)(=O)c5cccc(Cl)c5)c4Cl)nn3)cc12
